From ChEMBL document CHEMBL1137757, “Combinatorial chemistry in the agrosciences” (Bioorg Med Chem, 2009)

Assays:
[1] = Inhibition of Arabidopsis 4-hydroxyphenylpyruvate dioxygenase
[2] = target: 4-hydroxyphenylpyruvate dioxygenase (Rattus norvegicus, UniProt P32755); assay: Inhibition of rat 4-hydroxyphenylpyruvate dioxygenase
[3] = Inhibition of anthranilate synthase

4-hydroxyphenylpyruvate dioxygenase, sequence (P32755 whole entry): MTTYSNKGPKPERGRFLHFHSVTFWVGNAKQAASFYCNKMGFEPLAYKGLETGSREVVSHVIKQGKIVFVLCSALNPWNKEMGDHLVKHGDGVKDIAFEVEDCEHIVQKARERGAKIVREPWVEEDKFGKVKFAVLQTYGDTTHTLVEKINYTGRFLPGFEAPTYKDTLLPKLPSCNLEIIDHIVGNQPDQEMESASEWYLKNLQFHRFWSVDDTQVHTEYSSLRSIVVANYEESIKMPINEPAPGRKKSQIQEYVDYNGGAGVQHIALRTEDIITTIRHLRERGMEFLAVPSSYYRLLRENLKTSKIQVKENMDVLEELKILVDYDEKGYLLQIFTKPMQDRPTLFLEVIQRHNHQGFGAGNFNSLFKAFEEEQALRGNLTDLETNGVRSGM

IC50 [1] [µM]	IC50 [2] [µM]	IC50 [3] [µM]	SMILES
0.02	3.9	–	O=C(NCCCCC1C(=O)/C(=C(\O)C2CC2)C(=O)N1Cc1ccc(F)cc1)c1ccc(Cl)nc1 (stereo unspecified)
0.158	≥ 10	–	O=C(NCCCCC1C(=O)/C(=C(\O)C2CCC2)C(=O)N1Cc1ccccc1)Nc1cccc(Cl)c1 (stereo unspecified)
–	–	3.2	O=C(O)c1cccc(/C(=N/OCCc2ccc(Cl)cc2)c2cccc(C(F)(F)F)c2)c1
–	–	3.2	O=C(O)COc1ccccc1/C=N/OCc1cc(Cl)ccc1Cl
